# Test results published in patent publication US20160256371A1, “PHOTOSTABLE COMPOSITIONS COMPRISING PARA-ALKOXYL PHENYL SUBSTITUTED PROPENOIC ACID (APP) DERIVATIVES” (HALLSTAR INNOVATIONS CORP., priority 2015, published 2016).
# Experiment: Photostability of BMDBM/OMC compositions in acetonitrile under UV irradiation, with and without APP analogue
# Assay type: physicochemical
# Conditions: no APP
# Description: Comparisons were performed to evaluate the abilities of APP derivatives of Formula I, Ia, Ib, Ic, Id, Ie, If, or combination thereof to photostabilize photoactive compounds. UV light exposure is often measured in MED rather than a measurement of time. MED relates to the minimal dosage of UV exposure required to result in redness 24 hours after exposure. Although technically an individualized measurement that would vary depending on the sensitivity of an individual's skin, MED measurements have been standardized with the advent of UV bulbs and lamps. FIG. 1 illustrates the photoinstability of a composition containing BMDBM and OMC. […] Absorption was measured for wavelengths 250 nm to 500 nm in length. BMDBM absorbs wavelengths around 375 nm in length, which can be seen as a distinct peak on the line illustrating the composition which was not irradiated with UV light. […] FIG. 2 illustrates the photostabilization of a photoactive composition by the addition of an APP analogue of Formula I. […] The APP analogue was a 1:1 blend of Formula Ia and Formula Ib. […] FIG. 3 illustrates the percentage of BMDBM remaining in compositions after irradiation with 15 MED of UV light. […] The APP analogue was a 1:1 blend of Formula Ia and Formula Ib.
smiles,measurement,setting,value
"COc1ccc(C(=O)CC(=O)c2ccc(C(C)(C)C)cc2)cc1 [BMDBM, 4-tert-butyl-4-methoxy-dibenzoylmethane]",BMDBM absorption peak at 375 nm after UV irradiation,"acetonitrile solution, 10 ppm BMDBM and 10 ppm OMC, 15 MED versus 0 MED, FIG. 1",substantially diminished
same,percentage of BMDBM remaining capable of absorbing light at 375 nm after irradiation,"composition of 10 ppm BMDBM and 10 ppm OMC, 15 MED of UV light, FIG. 3",2.9%
